# Where “and” joins values, the source holds several entries; their conditions need not be identical. Equal values may be shown once. Where a name gives a salt, the structure may show the parent alone.
# Experiments:
# Vero E6 cells = settings: Vero E6
# SARS-CoV-2 USA_WA1/2020 = settings: hamster
# in vitro = settings: African green monkey
smiles,measurement,setting,value
"Nc1c(Br)cc(Br)cc1CN[C@H]1CC[C@H](O)CC1 [AMB, 4-[(2-amino-3,5-dibromophenyl)methylamino]cyclohexan-1-ol; hydrochloride]",Conc. at Max. % Viability,Vero E6 cells; Example C (Table 4),0.59 µM
same,Conc. at Min. % Viability,Vero E6 cells; Example C (Table 4),300 µM
same,Min. Viability,Vero E6 cells; Example C (Table 4),0.55%
same,Max. Viability,"Vero E6 cells; Example C (Table 4), hydrochloride",96% and 96.64%
same,percent minimum viability,"Vero E6 cells; at 30 μM, Example B",113.95%
same,"Overall Gmean Days 1-4, E sgRNA, rectal swabs",SARS-CoV-2 USA_WA1/2020,4.21 copies/swab
same,"Overall Gmean Days 1-4 higher than Group 3, E sgRNA, rectal swabs",SARS-CoV-2 USA_WA1/2020,3 fold
same,"Peak viral load versus Group 3, N2 gRNA, rectal swabs",SARS-CoV-2 USA_WA1/2020,similar
same,"Peak viral replication load higher than Group 3, E sgRNA, rectal swabs",SARS-CoV-2 USA_WA1/2020,6 fold
same,"SARS-CoV-2 genome load, N2 gRNA, lungs",SARS-CoV-2 USA_WA1/2020; Day 4,4.03E+09 copies/gram
same,"SARS-CoV-2 genome load, N2 gRNA, trachea",SARS-CoV-2 USA_WA1/2020; Day 4,6.24E+08 copies/gram
same,"active replication load higher than Group 3, E sgRNA, lungs",SARS-CoV-2 USA_WA1/2020; Day 4,2 fold
same,"active replication load, E sgRNA, lungs",SARS-CoV-2 USA_WA1/2020; Day 4,2.78E+07 copies/gram
same,"active replication load, E sgRNA, nasal turbinate",SARS-CoV-2 USA_WA1/2020; Day 4,1.09E+08 copies/gram
same,"active replication load, E sgRNA, trachea",SARS-CoV-2 USA_WA1/2020; Day 4,1.11E+06 copies/gram
same,"genome load higher than Group 3, N2 gRNA, lungs",SARS-CoV-2 USA_WA1/2020; Day 4,2 fold
same,"replication load higher than Group 3, E sgRNA, trachea",SARS-CoV-2 USA_WA1/2020; Day 4,similar
same,"viral load higher than Group 3, N2 gRNA, trachea",SARS-CoV-2 USA_WA1/2020; Day 4,similar
same,serum IL-6 levels versus Group 3,"SARS-CoV-2 USA_WA1/2020; Day 4, ELISA, P<0.05",significantly lower
same,serum TNF-α versus Group 3,"SARS-CoV-2 USA_WA1/2020; Day −1, Day 2 (P<0.05), Day 4 (P<0.001)",significantly low
same,serum IL-10 levels between groups,"SARS-CoV-2 USA_WA1/2020; Days −1, 2, 4",No significance difference
same,tolerability of administered doses,SARS-CoV-2 USA_WA1/2020; in vivo,tolerated the administered doses well
same,incidence and severity of microscopic lesions versus vehicle control,SARS-CoV-2 USA_WA1/2020; lung histopathology,similar
same,lung viral load by TCID50 assay versus vehicle control,SARS-CoV-2 USA_WA1/2020; lung samples Day 4,No difference
same,"SARS-CoV-2 genome load, N2 gRNA, nasal turbinate",SARS-CoV-2 USA_WA1/2020; necropsy Day 4,3.57E+10 copies/gram
same,gross lesions in the lung,SARS-CoV-2 USA_WA1/2020; necropsy Day 4,reduced gross lesions in the lung
same,"Overall Gmean Days 1-4, E sgRNA, pharyngeal swabs","SARS-CoV-2 USA_WA1/2020; AMB 500, BHH 200 mg/kg/day PO",1.89E+04 copies/swab
same,"Overall Gmean Days 1-4 lower than Group 3, E sgRNA, pharyngeal swabs","SARS-CoV-2 USA_WA1/2020; AMB 500, BHH 200 mg/kg/day PO",5 fold
same,"Overall Gmean Days 1-4 viral load lower than Group 3, N2 gRNA, pharyngeal swabs","SARS-CoV-2 USA_WA1/2020; AMB 500, BHH 200 mg/kg/day PO",4 fold
same,"Overall Gmean viral load Days 1-4, N2 gRNA, pharyngeal swabs","SARS-CoV-2 USA_WA1/2020; AMB 500, BHH 200 mg/kg/day PO",4.93E+07 copies/swab
same,"Peak viral load lower than vehicle (Group 3), N2 gRNA, pharyngeal swabs","SARS-CoV-2 USA_WA1/2020; AMB 500, BHH 200 mg/kg/day PO",16 fold
same,"Peak viral replication load lower than Group 3, E sgRNA, pharyngeal swabs","SARS-CoV-2 USA_WA1/2020; AMB 500, BHH 200 mg/kg/day PO",34 fold
same,"Peak viral load, N2 gRNA, pharyngeal swabs","SARS-CoV-2 USA_WA1/2020; AMB 500, BHH 200 mg/kg/day PO, peak Day 2 (AMB), Day 1 (BHH)",9.01E+06 copies/swab
same,"Peak viral replication load, E sgRNA, rectal swabs","SARS-CoV-2 USA_WA1/2020; peak Day 1 (AMB), Day 2 (BHH)",20.15 copies/swab
same,"Peak viral replication load, E sgRNA, pharyngeal swabs","SARS-CoV-2 USA_WA1/2020; peak Day 2 (AMB), Day 1 (BHH)",2.79E+04 copies/swab
same,"Peak viral load, N2 gRNA, rectal swabs",SARS-CoV-2 USA_WA1/2020; peak on Day 2,9.75E+04 copies/swab
same,CC50 at 72 h,"in vitro; 50% cytotoxic concentration (CC50), Vero E6, 72 hours, Examples A and B, highest concentration 30 μM",> 30 µM
same,CC50 at 72 h,"in vitro; Cytotoxicity CC50, Vero E6, 72 hours, Example C (Table 4)",184 µM
